Measured values published in ChEMBL document CHEMBL1128800, “Diastereoselective synthesis of mixanpril, an orally active dual inhibitor of neutral endopeptidase and angiotensin converting enzyme” (Bioorg Med Chem Lett, 1995).
Calls of active or inactive are those of the source. The rule behind the calls is not given here.

Key:
[1] = target: T1, Angiotensin-converting enzyme (Rattus norvegicus) (UniProt P47820); experiment: Effective dose against plasmatic angiotensin converting enzyme (ACE) in anaesthetized rats; details: Plasma
T1 sequence (whole entry): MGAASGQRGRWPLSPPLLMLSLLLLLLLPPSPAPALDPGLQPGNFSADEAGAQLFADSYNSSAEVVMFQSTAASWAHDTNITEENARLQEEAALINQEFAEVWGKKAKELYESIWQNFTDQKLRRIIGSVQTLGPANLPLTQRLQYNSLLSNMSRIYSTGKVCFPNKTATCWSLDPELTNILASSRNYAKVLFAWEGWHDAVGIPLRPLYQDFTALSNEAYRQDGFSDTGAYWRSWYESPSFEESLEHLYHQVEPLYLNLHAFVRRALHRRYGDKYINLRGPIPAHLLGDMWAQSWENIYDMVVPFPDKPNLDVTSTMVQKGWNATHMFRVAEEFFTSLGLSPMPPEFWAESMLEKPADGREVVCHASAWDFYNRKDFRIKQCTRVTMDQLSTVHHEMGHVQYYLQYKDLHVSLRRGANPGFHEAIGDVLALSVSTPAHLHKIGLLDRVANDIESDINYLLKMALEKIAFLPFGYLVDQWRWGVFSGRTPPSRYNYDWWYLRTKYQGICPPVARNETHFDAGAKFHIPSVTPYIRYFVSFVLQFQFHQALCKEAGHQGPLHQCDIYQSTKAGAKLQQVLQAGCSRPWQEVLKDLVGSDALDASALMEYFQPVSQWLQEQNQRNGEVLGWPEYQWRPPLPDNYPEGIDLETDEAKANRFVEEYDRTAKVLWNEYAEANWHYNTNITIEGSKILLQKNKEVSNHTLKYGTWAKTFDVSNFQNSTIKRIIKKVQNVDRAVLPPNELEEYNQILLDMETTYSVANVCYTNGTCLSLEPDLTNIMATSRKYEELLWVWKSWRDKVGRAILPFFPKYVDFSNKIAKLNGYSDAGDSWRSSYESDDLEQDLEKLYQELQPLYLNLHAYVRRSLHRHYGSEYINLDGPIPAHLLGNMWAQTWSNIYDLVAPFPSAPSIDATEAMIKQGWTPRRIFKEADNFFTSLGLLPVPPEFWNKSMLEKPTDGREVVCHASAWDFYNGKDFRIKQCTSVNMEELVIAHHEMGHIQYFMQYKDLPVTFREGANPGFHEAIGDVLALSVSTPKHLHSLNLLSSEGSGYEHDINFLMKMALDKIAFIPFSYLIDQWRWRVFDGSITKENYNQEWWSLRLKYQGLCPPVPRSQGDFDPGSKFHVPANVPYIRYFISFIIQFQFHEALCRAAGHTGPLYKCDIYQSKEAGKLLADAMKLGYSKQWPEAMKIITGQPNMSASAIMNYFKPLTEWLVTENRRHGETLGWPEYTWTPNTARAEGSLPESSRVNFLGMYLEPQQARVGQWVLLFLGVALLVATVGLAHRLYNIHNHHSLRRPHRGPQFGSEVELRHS

[2] = target: T1, Angiotensin-converting enzyme (Rattus norvegicus); experiment: […] inhibitory activity against plasmatic angiotensin converting enzyme (ACE) in anaesthetized rats after oral administration of 10 mg/kg dose; type: organism-based; set-up: dose 10 mg/kg
[3] = target: T1, Angiotensin-converting enzyme (Rattus norvegicus); experiment: […] inhibitory activity against plasmatic angiotensin converting enzyme (ACE) in anaesthetized rats after oral administration of 100 mg/kg dose; type: organism-based; set-up: dose 100 mg/kg
[4] = target: T1, Angiotensin-converting enzyme (Rattus norvegicus); experiment: […] inhibitory activity against plasmatic angiotensin converting enzyme (ACE) in anaesthetized rats after oral administration of 150 mg/kg dose; type: organism-based; set-up: dose 150 mg/kg
[5] = target: T1, Angiotensin-converting enzyme (Rattus norvegicus); experiment: […] inhibitory activity against plasmatic angiotensin converting enzyme (ACE) in anaesthetized rats after oral administration of 2.5 mg/kg dose; type: organism-based; set-up: dose 2.5 mg/kg
[6] = target: T1, Angiotensin-converting enzyme (Rattus norvegicus); experiment: […] inhibitory activity against plasmatic angiotensin converting enzyme (ACE) in anaesthetized rats after oral administration of 25 mg/kg dose; type: organism-based; set-up: dose 25 mg/kg
[7] = target: T1, Angiotensin-converting enzyme (Rattus norvegicus); experiment: […] inhibitory activity against plasmatic angiotensin converting enzyme (ACE) in anaesthetized rats after oral administration of 5 mg/kg dose; type: organism-based; set-up: dose 5 mg/kg
[8] = target: T1, Angiotensin-converting enzyme (Rattus norvegicus); experiment: […] inhibitory activity against plasmatic angiotensin converting enzyme (ACE) in anaesthetized rats after oral administration of 50 mg/kg dose; type: organism-based; set-up: dose 50 mg/kg
[9] = target: T2, Neprilysin (Rattus norvegicus) (UniProt P07861); experiment: Tested for inhibitory activity against neutral endopeptidase at a dose of 2.5 mg/kg in rats; Active; type: organism-based; set-up: dose 2.5 mg/kg
T2 sequence (whole entry): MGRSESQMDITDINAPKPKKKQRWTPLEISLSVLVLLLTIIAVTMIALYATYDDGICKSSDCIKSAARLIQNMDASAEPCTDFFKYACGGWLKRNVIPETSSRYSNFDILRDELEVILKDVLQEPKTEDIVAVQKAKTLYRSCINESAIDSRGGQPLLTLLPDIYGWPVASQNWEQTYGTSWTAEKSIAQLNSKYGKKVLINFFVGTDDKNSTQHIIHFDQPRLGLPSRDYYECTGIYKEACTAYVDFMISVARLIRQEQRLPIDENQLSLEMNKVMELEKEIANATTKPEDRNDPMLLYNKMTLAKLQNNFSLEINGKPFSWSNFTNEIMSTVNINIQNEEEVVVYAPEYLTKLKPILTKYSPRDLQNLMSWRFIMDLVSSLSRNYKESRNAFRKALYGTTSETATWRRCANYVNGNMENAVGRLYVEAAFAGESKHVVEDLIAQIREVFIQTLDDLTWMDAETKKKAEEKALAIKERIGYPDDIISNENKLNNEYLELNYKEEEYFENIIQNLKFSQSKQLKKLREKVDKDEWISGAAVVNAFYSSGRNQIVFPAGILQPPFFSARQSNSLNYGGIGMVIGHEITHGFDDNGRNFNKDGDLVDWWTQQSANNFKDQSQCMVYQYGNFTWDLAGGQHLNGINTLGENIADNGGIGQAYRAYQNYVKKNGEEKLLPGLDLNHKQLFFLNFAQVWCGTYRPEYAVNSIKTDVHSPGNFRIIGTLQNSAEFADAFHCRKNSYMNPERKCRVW

`CC(NC(=O)C(CSC(=O)c1ccccc1)C(C)c1ccccc1)C(=O)O` (centres undefined) gave an ED50 [1] of 12 mg/kg, an inhibition [2] of 50% and an inhibition [3] of 70%. It also gave an inhibition [4] of 82%, an inhibition [5] of 25% and an inhibition [6] of 55%. For the same molecule, the inhibition [7] was 35%, the inhibition [8] was 65% and the Activity [9] was “Active”.
